Results from patent US10875875B2, “Propionic acid derivatives and methods of use thereof” (Aviara Pharmaceuticals, Inc., priority 2017, dated 2020).

Target: α4β1 (Homo sapiens, UniProt P05556+P13612)
Experiment: α4β1 integrin inhibition, IC50
Type: binding
Conditions: read-out: α4β1 IC50

α4β1, sequence (P13612 34-1032): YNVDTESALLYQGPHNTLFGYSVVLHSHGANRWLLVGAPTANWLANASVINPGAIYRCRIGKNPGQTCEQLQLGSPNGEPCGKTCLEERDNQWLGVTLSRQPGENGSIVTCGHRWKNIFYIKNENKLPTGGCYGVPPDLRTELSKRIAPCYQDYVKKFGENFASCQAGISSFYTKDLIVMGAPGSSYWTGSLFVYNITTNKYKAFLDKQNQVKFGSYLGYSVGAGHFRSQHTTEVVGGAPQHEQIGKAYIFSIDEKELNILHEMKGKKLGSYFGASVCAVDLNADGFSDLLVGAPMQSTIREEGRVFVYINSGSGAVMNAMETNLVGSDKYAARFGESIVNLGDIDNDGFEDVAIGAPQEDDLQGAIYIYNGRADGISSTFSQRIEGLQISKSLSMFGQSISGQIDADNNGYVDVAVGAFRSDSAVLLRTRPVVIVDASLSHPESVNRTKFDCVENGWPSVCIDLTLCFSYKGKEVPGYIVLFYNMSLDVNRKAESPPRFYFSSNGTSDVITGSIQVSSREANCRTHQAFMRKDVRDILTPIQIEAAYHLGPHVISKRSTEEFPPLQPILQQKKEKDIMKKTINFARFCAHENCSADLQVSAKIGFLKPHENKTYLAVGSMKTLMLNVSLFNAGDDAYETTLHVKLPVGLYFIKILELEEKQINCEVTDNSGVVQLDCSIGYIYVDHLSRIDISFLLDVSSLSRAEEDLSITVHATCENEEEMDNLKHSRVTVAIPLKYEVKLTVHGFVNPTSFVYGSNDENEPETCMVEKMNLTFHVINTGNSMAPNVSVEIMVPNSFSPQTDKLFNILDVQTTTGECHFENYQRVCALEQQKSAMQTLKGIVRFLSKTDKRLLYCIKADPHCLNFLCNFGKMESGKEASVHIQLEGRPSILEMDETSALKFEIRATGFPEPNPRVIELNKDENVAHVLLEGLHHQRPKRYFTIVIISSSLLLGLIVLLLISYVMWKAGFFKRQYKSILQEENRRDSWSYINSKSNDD
α4β1, sequence (P05556 21-798): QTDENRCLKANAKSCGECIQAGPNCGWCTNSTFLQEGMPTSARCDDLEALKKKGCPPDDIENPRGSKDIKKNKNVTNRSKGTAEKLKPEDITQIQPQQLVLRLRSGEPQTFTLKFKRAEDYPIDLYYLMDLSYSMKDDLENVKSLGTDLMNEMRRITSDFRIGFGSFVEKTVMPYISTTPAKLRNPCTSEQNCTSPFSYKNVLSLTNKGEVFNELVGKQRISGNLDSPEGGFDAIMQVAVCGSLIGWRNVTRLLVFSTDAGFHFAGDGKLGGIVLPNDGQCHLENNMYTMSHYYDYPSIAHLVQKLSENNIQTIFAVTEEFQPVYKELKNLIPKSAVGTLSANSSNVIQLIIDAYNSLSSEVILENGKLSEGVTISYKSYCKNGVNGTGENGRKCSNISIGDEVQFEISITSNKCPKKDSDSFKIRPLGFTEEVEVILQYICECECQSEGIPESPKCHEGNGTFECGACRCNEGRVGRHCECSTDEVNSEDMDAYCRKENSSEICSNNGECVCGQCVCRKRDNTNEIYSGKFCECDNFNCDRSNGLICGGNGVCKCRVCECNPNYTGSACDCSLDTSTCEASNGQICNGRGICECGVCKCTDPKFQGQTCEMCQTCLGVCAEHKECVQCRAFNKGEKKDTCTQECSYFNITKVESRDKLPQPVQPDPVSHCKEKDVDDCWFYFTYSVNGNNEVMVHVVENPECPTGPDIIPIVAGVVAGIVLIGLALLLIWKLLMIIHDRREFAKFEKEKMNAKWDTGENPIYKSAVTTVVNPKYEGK

`COc1ccc(-c2c(C)cccc2C)cc1[C@H](CC(=O)O)NC(=O)Nc1c(O)ccn(C)c1=O` [1-602, sodium (S)-3-(4-methoxy-2′,6′-dimethylbiphenyl-3-yl)-3-(3-(1-methyl-4-oxido-2-oxo-1,2-dihydropyridin-3-yl)ureido)propanoate] and `COc1ccc(-c2ccccc2)cc1[C@H](CC(=O)O)NC(=O)Nc1c(O)ccn(C)c1=O` [1-596, sodium (S)-3-(4-methoxybiphenyl-3-yl)-3-(3-(1-methyl-4-oxido-2-oxo-1,2-dihydropyridin-3-yl)ureido)propanoate] cannot be ordered by IC50: under 20 nM for the first, under 20 nM for the second.

`COc1cccc(OC)c1-c1cccc([C@H](CC(=O)O)NC(=O)Nc2c(O)c(C)cn(C)c2=O)c1` [1-479, sodium (S)-3-(2′,6′-dimethoxybiphenyl-3-yl)-3-(3-(1,5-dimethyl-4-oxido-2-oxo-1,2-dihydropyridin-3-yl)ureido)propanoate] and `COc1cccc(-c2cccc([C@H](CC(=O)O)NC(=O)Nc3c(O)c(C)cn(C)c3=O)c2)c1C` [1-489, sodium (S)-3-(3-(1,5-dimethyl-4-oxido-2-oxo-1,2-dihydropyridin-3-yl)ureido)-3-(3′-methoxy-2′-methylbiphenyl-3-yl)propanoate] cannot be ordered by IC50: under 200 nM for the first, under 200 nM for the second.

`Cn1ccc(O)c(NC(=O)N[C@@H](CC(=O)O)c2cc(-c3ccccc3)ccc2F)c1=O` [1-570, sodium (S)-3-(4-fluorobiphenyl-3-yl)-3-(3-(1-methyl-4-oxido-2-oxo-1,2-dihydropyridin-3-yl)ureido)propanoate] and `Cn1ccc(O)c(NC(=O)N[C@@H](CC(=O)O)c2cc(-c3cccc(OC(F)(F)F)c3)ccc2F)c1=O` [1-594, sodium (S)-3-(4-fluoro-3′-(trifluoromethoxy)biphenyl-3-yl)-3-(3-(1-methyl-4-oxido-2-oxo-1,2-dihydropyridin-3-yl)ureido)propanoate] cannot be ordered by IC50: under 20 nM for the first, under 20 nM for the second.

`COc1ccc([C@H](CC(=O)O)NC(=O)Nc2c(O)ccn(C)c2=O)cc1-c1cccc(Cl)c1` [1-534, sodium (S)-3-(3′-chloro-6-methoxybiphenyl-3-yl)-3-(3-(1-methyl-4-oxido-2-oxo-1,2-dihydropyridin-3-yl)ureido)propanoate] and `Cc1ccc([C@H](CC(=O)O)NC(=O)Nc2c(O)ccn(C)c2=O)cc1-c1cccc(OC(F)(F)F)c1` [1-576, sodium (S)-3-(6-methyl-3′-(trifluoromethoxy)biphenyl-3-yl)-3-(3-(1-methyl-4-oxido-2-oxo-1,2-dihydropyridin-3-yl)ureido)propanoate] cannot be ordered by IC50: under 20 nM for the first, under 20 nM for the second.

`Cn1ccc(O)c(NC(=O)N[C@@H](CC(=O)O)c2cccc(-n3cccc3)c2)c1=O` [1-507, sodium (S)-3-(3-(1H-pyrrol-1-yl)phenyl)-3-(3-(1-methyl-4-oxido-2-oxo-1,2-dihydropyridin-3-yl)ureido)propanoate] and `COc1cccc(-c2cccc([C@H](CC(=O)O)NC(=O)Nc3c(O)ccn(C)c3=O)c2)n1` [sodium (S)-3-(3-(6-methoxypyridin-2-yl)phenyl)-3-(3-(1-methyl-4-oxido-2-oxo-1,2-dihydropyridin-3-yl)ureido)propanoate] cannot be ordered by IC50: under 20 nM for the first, under 20 nM for the second.

`COc1ccc(-c2cccc([C@H](CC(=O)O)NC(=O)Nc3c(O)ccn(C)c3=O)c2)cn1` [1-508, sodium (S)-3-(3-(6-methoxypyridin-3-yl)phenyl)-3-(3-(1-methyl-4-oxido-2-oxo-1,2-dihydropyridin-3-yl)ureido)propanoate] and `COc1ccc(-c2cccc([C@H](CC(=O)O)NC(=O)Nc3c(O)ccn(C)c3=O)c2)nn1` [1-640, sodium (S)-3-(3-(6-methoxypyridazin-3-yl)phenyl)-3-(3-(1-methyl-4-oxido-2-oxo-1,2-dihydropyridin-3-yl)ureido)propanoate] cannot be ordered by IC50: under 20 nM for the first, under 20 nM for the second.

`COc1cc(-c2ccccc2)cc([C@H](CC(=O)O)NC(=O)Nc2c(O)ccn(C)c2=O)c1` [1-558, sodium (S)-3-(5-methoxybiphenyl-3-yl)-3-(3-(1-methyl-4-oxido-2-oxo-1,2-dihydropyridin-3-yl)ureido)propanoate] and `COc1cccc(-c2cc(F)cc([C@H](CC(=O)O)NC(=O)Nc3c(O)ccn(C)c3=O)c2)c1` [1-604, sodium (S)-3-(5-fluoro-3′-methoxybiphenyl-3-yl)-3-(3-(1-methyl-4-oxido-2-oxo-1,2-dihydropyridin-3-yl)ureido)propanoate] cannot be ordered by IC50: under 20 nM for the first, under 20 nM for the second.

`Cc1cccc(C)c1-c1cc([C@H](CC(=O)O)NC(=O)Nc2c(O)cc(C)n(C)c2=O)ccc1F` [1-578, sodium (S)-3-(3-(1,6-dimethyl-4-oxido-2-oxo-1,2-dihydropyridin-3-yl)ureido)-3-(6-fluoro-2′,6′-dimethylbiphenyl-3-yl)propanoate] and `Cc1cccc(C)c1-c1ccc([C@H](CC(=O)O)NC(=O)Nc2c(O)cc(C)n(C)c2=O)cc1` [1-638, sodium (S)-3-(3-(1,6-dimethyl-4-oxido-2-oxo-1,2-dihydropyridin-3-yl)ureido)-3-(2′,6′-dimethylbiphenyl-4-yl)propanoate] cannot be ordered by IC50: under 20 nM for the first, under 200 nM for the second.

`COc1cccc(-c2cc(F)cc([C@H](CC(=O)O)NC(=O)Nc3c(O)cc(C)n(C)c3=O)c2)c1` [1-605, sodium (S)-3-(5-fluoro-3′-methoxybiphenyl-3-yl)-3-(3-(4-hydroxy-1,6-dimethyl-2-oxo-1,2-dihydropyridin-3-yl)ureido)propanoate] and `Cc1cc(O)c(NC(=O)N[C@@H](CC(=O)O)c2cc(F)cc(-c3cccc(OC(F)(F)F)c3)c2)c(=O)n1C` [1-606, sodium (S)-3-(3-(1,6-dimethyl-4-oxido-2-oxo-1,2-dihydropyridin-3-yl)ureido)-3-(5-fluoro-3′-trifluoromethoxybiphenyl-3-yl)propanoate] cannot be ordered by IC50: under 20 nM for the first, under 20 nM for the second.

`Cc1ccc(-c2cccc([C@H](CC(=O)O)NC(=O)Nc3c(O)c(C)cn(C)c3=O)c2)cc1C` [1-495, sodium (S)-3-(3-(1,5-dimethyl-4-oxido-2-oxo-1,2-dihydropyridin-3-yl)ureido)-3-(3′,4′-dimethylbiphenyl-3-yl)propanoate] and `Cc1cn(C)c(=O)c(NC(=O)NC(CC(=O)O)c2cccc(-c3ccc(F)c(Cl)c3)c2)c1O` (centres unmarked) [1-484, sodium 3-(3′-chloro-4′-fluorobiphenyl-3-yl)-3-(3-(1,5-dimethyl-4-oxido-2-oxo-1,2-dihydropyridin-3-yl)ureido)propanoate] cannot be ordered by IC50: under 200 nM for the first, under 200 nM for the second.

`Cc1ccccc1-c1cccc([C@H](CC(=O)O)NC(=O)Nc2c(O)c(C)cn(C)c2=O)c1` [1-440, sodium (S)-3-(3-(1,5-dimethyl-4-oxido-2-oxo-1,2-dihydropyridin-3-yl)ureido)-3-(2′-methylbiphenyl-3-yl)propanoate] and `Cc1ccc([C@H](CC(=O)O)NC(=O)Nc2c(O)c(C)cn(C)c2=O)cc1-c1ccccc1` [1-448, sodium (S)-3-(3-(1,5-dimethyl-4-oxido-2-oxo-1,2-dihydropyridin-3-yl)ureido)-3-(6-methylbiphenyl-3-yl)propanoate] cannot be ordered by IC50: under 200 nM for the first, under 200 nM for the second.

`Cc1cn(C)c(=O)c(NC(=O)NC(CC(=O)O)c2cccc(-c3cc(Cl)cc(Cl)c3)c2)c1O` (centres unmarked) [1-486, sodium 3-(3′,5′-dichlorobiphenyl-3-yl)-3-(3-(1,5-dimethyl-4-oxido-2-oxo-1,2-dihydropyridin-3-yl)ureido)propanoate] and `COc1ccc(-c2cccc([C@H](CC(=O)O)NC(=O)Nc3c(O)c(C)cn(C)c3=O)c2)cc1` [1-645, sodium (S)-3-(3-(1,5-dimethyl-4-oxido-2-oxo-1,2-dihydropyridin-3-yl)ureido)-3-(4′-methoxybiphenyl-3-yl)propanoate] cannot be ordered by IC50: under 200 nM for the first, under 200 nM for the second.

`Cn1ccc(O)c(NC(=O)N[C@@H](CC(=O)O)c2cc(-c3ccc(F)cc3F)ccc2F)c1=O` [1-591, sodium (S)-3-(3-(1-methyl-4-oxido-2-oxo-1,2-dihydropyridin-3-yl)ureido)-3-(2′,4,4′-trifluorobiphenyl-3-yl)propanoate] and `Cn1ccc(O)c(NC(=O)N[C@@H](CC(=O)O)c2cc(-c3ccc(F)cc3F)cs2)c1=O` [1-523, sodium (S)-3-(4-(2,4-difluorophenyl)thiophen-2-yl)-3-(3-(1-methyl-4-oxido-2-oxo-1,2-dihydropyridin-3-yl)ureido)propanoate] cannot be ordered by IC50: under 20 nM for the first, under 20 nM for the second.

`Cc1ccccc1-c1cc([C@H](CC(=O)O)NC(=O)Nc2c(O)ccn(C)c2=O)ccc1OC(F)(F)F` [1-624, sodium (S)-3-(3-(1-methyl-4-oxido-2-oxo-1,2-dihydropyridin-3-yl)ureido)-3-(2′-methyl-6-(trifluoromethoxy)biphenyl-3-yl)propanoate] and `Cc1cn(C)c(=O)c(NC(=O)N[C@@H](CC(=O)O)c2cccc(-c3ccccc3OC(F)(F)F)c2)c1O` [1-467, sodium (S)-3-(3-(1,5-dimethyl-4-oxido-2-oxo-1,2-dihydropyridin-3-yl)ureido)-3-(2′-(trifluoromethoxy)biphenyl-3-yl)propanoate] cannot be ordered by IC50: under 20 nM for the first, under 200 nM for the second.

`Cc1cscc1-c1ccc([C@H](CC(=O)O)NC(=O)Nc2c(O)cc(C)n(C)c2=O)s1` [1-585, sodium (S)-3-(3-(1,6-dimethyl-4-oxido-2-oxo-1,2-dihydropyridin-3-yl)ureido)-3-(4′-methyl-2,3′-bithiophen-5-yl)propanoate] and `Cc1cc(-c2c(C)cccc2C)cc([C@H](CC(=O)O)NC(=O)Nc2c(O)cc(C)n(C)c2=O)c1` [1-597, sodium (S)-3-(3-(1,6-dimethyl-4-oxido-2-oxo-1,2-dihydropyridin-3-yl)ureido)-3-(2′,5,6′-trimethylbiphenyl-3-yl)propanoate] cannot be ordered by IC50: under 20 nM for the first, under 20 nM for the second.

`CCn1ccc(O)c(NC(=O)N[C@@H](CC(=O)O)c2cccc(-c3ccc(F)cc3F)c2)c1=O` [1-531, sodium (S)-3-(2′,4′-difluorobiphenyl-3-yl)-3-(3-(1-ethyl-4-oxido-2-oxo-1,2-dihydropyridin-3-yl)ureido)propanoate] and `Cc1cc(O)c(NC(=O)N[C@@H](CC(=O)O)c2cc(F)cc(-c3ccc(F)cc3F)c2)c(=O)n1C` [1-632, sodium (S)-3-(3-(1,6-dimethyl-4-oxido-2-oxo-1,2-dihydropyridin-3-yl)ureido)-3-(2′,4′,5-trifluorobiphenyl-3-yl)propanoate] cannot be ordered by IC50: under 20 nM for the first, under 20 nM for the second.
